# Measured values published in patent US9440982B2 (Eolas Therapeutics, Inc., priority 2012, dated 2016).
# Target: T1, OX1 (Homo sapiens, UniProt O43613)
# T1 construct: expressed in transfected cells; host or cells: CHO (CHO-OX1, kept under selection antibiotic)
# T1 sequence (O43613 1-425): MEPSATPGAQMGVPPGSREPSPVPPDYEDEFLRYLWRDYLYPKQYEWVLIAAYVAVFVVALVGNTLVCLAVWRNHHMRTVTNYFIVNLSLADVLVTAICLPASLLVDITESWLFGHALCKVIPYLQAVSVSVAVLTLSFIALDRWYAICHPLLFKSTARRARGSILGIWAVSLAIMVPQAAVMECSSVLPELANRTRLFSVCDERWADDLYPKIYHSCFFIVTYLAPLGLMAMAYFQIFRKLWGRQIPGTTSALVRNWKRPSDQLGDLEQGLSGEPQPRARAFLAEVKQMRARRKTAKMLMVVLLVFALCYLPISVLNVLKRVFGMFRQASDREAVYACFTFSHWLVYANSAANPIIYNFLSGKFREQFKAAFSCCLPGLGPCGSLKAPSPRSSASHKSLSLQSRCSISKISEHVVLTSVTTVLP
# Experiment: Orexin receptor cell-based functional assay, [Ca2+]i by FLIPR, CHO-OX1 cells
# Settings: Table 2; CHO-OX1 cells, EC90 of OXA; read-out: IC50 Bioactivity OX1
# Description: Measurement of [Ca^2+]i using a FLIPR: CHO—OX1 or CHO—OX2 cells are seeded into black-walled clear-base 384-well plates (Costar) at a density of 20,000 cells per well in F12-K medium supplemented with 10% FBS and selection antibiotic (500 ug/ml G418 or 15 ug/ml Blasticidin) and cultured overnight. The cells are incubated with equal volume of calcium4 loading buffer (Molecular Devices, Inc.) containing 2.5 mM probenecid at 37° C. for 30 min, followed by putative OX1 or OX2 receptor antagonists (dose-range 0.1 nM-10 μM) for another 30 min.
# The cells are incubated with equal volume of calcium6 loading buffer (Molecular Devices, Inc.) containing 2.5 mM probenecid at 37° C. for 2 h, followed by test compounds (dose-range 0.1 nM-10 μM) for another 30 min.
row,Structure (SMILES),IC50 [nM]
1,"Cc1nc(C(=O)N2CC(F)(F)CCC2CNC(=O)c2cccc3cccnc23)c(-c2cccc(F)c2)s1 (racemic) [Example 52, rac-N-((5,5-Difluoro-1-(5-(3-fluorophenyl)-2-methylthiazole-4-carbonyl)piperidin-2-yl)methyl)quinoline-8-carboxamide]",1
2,"Cc1nc(C(=O)N2CC(N)CCC2CNC(=O)c2cccc3cccnc23)c(-c2cccc(F)c2)s1 (racemic) [Example 53, N-((5-Amino-1-(5-(3-fluorophenyl)-2-methylthiazole-4-carbonyl)piperidin-2-yl)methyl)quinoline-8-carboxamide]",65
3,"Cc1nc(C(=O)N2CC(F)(F)CCC2CNC(=O)c2cccc3cccnc23)c(-c2ccccc2)s1 (racemic) [Example 56, rac-N-((5,5-Difluoro-1-(2-methyl-5-phenylthiazole-4-carbonyl)piperidin-2-yl)methyl)quinoline-8-carboxamide]",< 100
4,"COc1c(F)cccc1C(=O)NCC1CCCC(C)N1C(=O)c1nc(C)sc1-c1ccc(F)cc1 (racemic) [Example 60, rac-3-Fluoro-N-((1-(5-(4-fluorophenyl)-2-methylthiazole-4-carbonyl)-6-methylpiperidin-2-yl)methyl)-2-methoxybenzamide]",1
5,"Cc1nc(C(=O)N2CCC[C@@H](C)[C@H]2CNC(=O)c2cccc3occc23)c(-c2ccc(F)cc2)s1 (racemic) [Example 63, rac-cis-N-((1-(5-(4-Fluorophenyl)-2-methylthiazole-4-carbonyl)-3-methylpiperidin-2-yl)methyl)benzofuran-4-carboxamide]",2
6,"Cc1nc(-c2ccccc2)c(C(=O)N2C[C@@H]3CCCC[C@@H]3[C@H]2CNC(=O)c2cccc3cccnc23)s1 (racemic) [Example 64, N-(((1S,3aR,7aS)-2-(2-Methyl-4-phenylthiazole-5-carbonyl)octahydro-1H-isoindol-1-yl)methyl)quinoline-8-carboxamide]",3000
7,"O=C(NC[C@@H]1[C@H]2CCCC[C@H]2CN1C(=O)c1ccccc1-c1ccccc1)c1cccc2cccnc12 (racemic) [Example 66, N-(((1S,3aR,7aS)-2-(Biphenylcarbonyl)octahydro-1H-isoindol-1-yl)methyl)quinoline-8-carboxamide]",350
8,"CCc1cnc(NC[C@@H]2[C@H](CC)CCCN2C(=O)c2nc(C)sc2-c2ccc(F)cc2)nc1 (racemic) [Example 78, rac-cis-(3-Ethyl-2-(((5-ethylpyrimidin-2-yl)amino)methyl)piperidin-1-yl)(5-(4-fluorophenyl)-2-methylthiazol-4-yl)methanone]",2
9,"Cc1nc(C(=O)N2CCC[C@@H](C)[C@H]2CNc2ncc(Cl)cn2)c(-c2ccc(F)cc2)s1 (racemic) [Example 82, rac-cis-(2-(((5-Chloropyrimidin-2-yl)amino)methyl)-3-methylpiperidin-1-yl)(5-(4-fluorophenyl)-2-methylthiazol-4-yl)methanone]",4
10,"Cc1nc(C(=O)N2CCC[C@@H](C(C)C)[C@H]2CNc2nc3ccccc3o2)c(-c2ccc(F)cc2)s1 (racemic) [Example 84, rac-cis-((2S,3S)-2-((Benzo[d]oxazol-2-ylamino)methyl)-3-isopropylpiperidin-1-yl)(5-(4-fluorophenyl)-2-methylthiazol-4-yl)methanone]",35
11,"Cc1nc(C(=O)N2CCC[C@@H](C)[C@H]2CNc2ccc(C#N)cn2)c(-c2ccc(F)cc2)s1 (racemic) [Example 91, rac-cis-6-(((1-(5-(4-Fluorophenyl)-2-methylthiazole-4-carbonyl)-3-methylpiperidin-2-yl)methyl)amino)nicotinonitrile]",140
12,"CO[C@@H]1CCCN(C(=O)c2nc(C)sc2-c2ccc(F)cc2)[C@@H]1CNc1ncc(Cl)cn1 (racemic) [Example 93, rac-cis-(2-(((5-Chloropyrimidin-2-yl)amino)methyl)-3-methoxypiperidin-1-yl)(5-(4-fluorophenyl)-2-methylthiazol-4-yl)methanone]",100

# Other lines, results leading:
row,IC50 [nM],Structure (SMILES)
1,10,"Cc1nc(C(=O)N2CC(O)CCC2CNC(=O)c2cccc3cccnc23)c(-c2cccc(F)c2)s1 (racemic) [Example 51, N-((1-(5-(3-Fluorophenyl)-2-methylthiazole-4-carbonyl)-5-hydroxypiperidin-2-yl)methyl)quinoline-8-carboxamide]"
2,180,"Cc1nc(C(=O)N2CC(NCCO)CCC2CNC(=O)c2cccc3cccnc23)c(-c2cccc(F)c2)s1 (racemic) [Example 54, N-((1-(5-(3-Fluorophenyl)-2-methylthiazole-4-carbonyl)-5-(2-hydroxyethylamino)piperidin-2-yl)methyl)quinoline-8-carboxamide]"
3,< 100,"Cc1cc2c(C(=O)NCC3CCC(F)(F)CN3C(=O)c3nc(C)sc3-c3ccc(F)cc3)cccc2o1 (racemic) [Example 57, rac-N-((5,5-Difluoro-1-(5-(4-fluorophenyl)-2-methylthiazole-4-carbonyl)piperidin-2-yl)methyl)-2-methylbenzofuran-4-carboxamide]"
4,7,"Cc1cc2c(C(=O)NCC3CCCC(C)N3C(=O)c3nc(C)sc3-c3ccc(F)cc3)cccc2o1 (racemic) [Example 61, rac-N-((1-(5-(4-Fluorophenyl)-2-methylthiazole-4-carbonyl)-6-methylpiperidin-2-yl)methyl)-2-methylbenzofuran-4-carboxamide]"
5,6,"Cc1nc(C(=O)N2CCC[C@@H](C)[C@H]2CNc2nc3ccccc3s2)c(-c2ccc(F)cc2)s1 (racemic) [Example 72, rac-cis-(2-((Benzo[d]thiazol-2-ylamino)methyl)-3-methylpiperidin-1-yl)(5-(4-fluorophenyl)-2-methylthiazol-4-yl)methanone]"
6,< 10,"Cc1nc(C(=O)N2CCC[C@@H](C)[C@H]2CNc2ccc(C(F)(F)F)cn2)c(-c2ccccc2)s1 (racemic) [Example 73, rac-cis-(3-Methyl-2-(((5-(trifluoromethyl)pyridin-2-yl)amino)methyl)piperidin-1-yl)(2-methyl-5-phenylthiazol-4-yl)methanone]"
7,58,"Cc1nc(C(=O)N2CCC[C@@H](C)[C@H]2CNc2cccc3cccnc23)c(-c2ccc(F)cc2)s1 (racemic) [Example 74, rac-cis-(3-Methyl-2-((quinolin-8-ylamino)methyl)piperidin-1-yl)(5-(4-fluorophenyl)-2-methylthiazol-4-yl)methanone]"
8,300,"CC[C@@H]1CCCN(C(=O)c2nc(C)sc2-c2ccc(F)cc2)[C@@H]1CNc1ccc(C(F)(F)F)cn1 (racemic) [Example 76, rac-cis-(3-Ethyl-2-(((5-(trifluoromethyl)pyridin-2-yl)amino)methyl)piperidin-1-yl)(5-(4-fluorophenyl)-2-methylthiazol-4-yl)methanone]"
9,140,"Cc1nc(C(=O)N2CCC[C@@H](C)[C@H]2COc2nc3ccccc3o2)c(-c2ccc(F)cc2)s1 (racemic) [Example 80, rac-cis-(2-((Benzo[d]oxazol-2-yloxy)methyl)-3-methylpiperidin-1-yl)(5-(4-fluorophenyl)-2-methylthiazol-4-yl)methanone]"
10,30,"Cc1cnc(NC[C@@H]2[C@H](C)CCCN2C(=O)c2nc(C)sc2-c2ccc(F)cc2)nc1 (racemic) [Example 83, rac-cis-(3-Methyl-2-(((5-methylpyrimidin-2-yl)amino)methyl)piperidin-1-yl)(5-(4-fluorophenyl)-2-methylthiazol-4-yl)methanone]"
11,22,"Cc1ccc(NC[C@@H]2[C@H](C)CCCN2C(=O)c2nc(C)sc2-c2ccc(F)cc2)nc1 (racemic) [Example 86, rac-cis-(3-Methyl-2-(((5-methylpyridin-2-yl)amino)methyl)piperidin-1-yl)(5-(4-fluorophenyl)-2-methylthiazol-4-yl)methanone]"
12,220,"Cc1nc(C(=O)N2CCC[C@@H](C)[C@H]2CNc2cccc(C(F)(F)F)n2)c(-c2ccc(F)cc2)s1 (racemic) [Example 87, rac-cis-(3-Methyl-2-(((6-(trifluoromethyl)pyridin-2-yl)amino)methyl)piperidin-1-yl) (5-(4-fluorophenyl)-2-methylthiazol-4-yl)methanone]"
13,42,"COc1cnc(NC[C@@H]2[C@H](C)CCCN2C(=O)c2nc(C)sc2-c2ccc(F)cc2)nc1 (racemic) [Example 88, rac-cis-(2-(((5-Methoxypyrimidin-2-yl)amino)methyl)-3-methylpiperidin-1-yl) (5-(4-fluorophenyl)-2-methylthiazol-4-yl)methanone]"
14,560,"CO[C@@H]1CCCN(C(=O)c2nc(C)sc2-c2ccc(F)cc2)[C@@H]1CNc1ccc(C(F)(F)F)cn1 (racemic) [Example 92, rac-cis-(3-Methoxy-2-(((5-(trifluoromethyl)pyridin-2-yl)amino)methyl)piperidin-1-yl) (5-(4-fluorophenyl)-2-methylthiazol-4-yl)methanone]"
